# Test results reported in US10617656B2, “Methods of increasing the cytotoxicity of chemotherapeutic agents with multisubstrate inhibitors of histone, protein-Lys, polyamine acetylation, and polyamine metabolism” (Vanderbilt University, priority 2010, dated 2020).
# How the values were obtained:
# [1] = tested on: MDA MB-435 breast cancer cells; assay: 72 hr viability assay, MDA MB-435; assay type: cell-based; conditions: 72 hr assay; DFMO 100 μM, 5FU 2 μM, doxorubicin 100 nM
# MCF7 breast cancer cells = conditions: 72 hr assay; DFMO 100 μM, 5FU 2 μM, doxorubicin 100 nM
# Experimental: Viability was measured 3 days after the start of treatment and is expressed as a percentage of control (untreated) cell viability.
# Each point is average of triplicates. […]
# The present inventors carried out 96-well viability assays as we have previously described (Saadatmandi et al, Cancer Gene Therapy (2002) 9:830-9), in which MCF7 breast cancer cells were plated at 3000 cells per well. After overnight attachment, triplicate wells were treated with increasing doses of inhibitor 1a. Control wells were left untreated. After 3 days, cell viability was measured by the MTS assay, which measures the bioconversion of an uncolored substrate to a colored formazan derivative, and is proportional to cell number.
# DLD-1 colon cancer = assay: Nude mouse subcutaneous DLD-1 tumor model; assay type: in vivo; conditions: DFMO only, intratumoral 2 mg/kg
# Experimental: Tumors were initiated By subcutaneous implantation of […] DLD-1 colon cancer cells. […] Tumors were measured and volumes calculated as in FIG. 14.
# Tumors were initiated by injecting 10^6 DLD-1 cells (from ATCC) per mouse (female nude mouse, 4-5 weeks, Harlan Labs) subcutaneously in the flank. (A) When the average tumor size reached 26 mm^3, animals were randomized into 2 groups (3 per group). One group was left untreated and served as the control (-●-). […] Tumors were measured bidirectionally at 2-3 day intervals and tumor volumes were calculated (v=½ L×w^2). A paired t-test was used to evaluate the significance of the differences between the two groups of animals. […] (B) Tumors were initiated as in part (A). When tumors reached an average size of about 30 mm^3, animals were randomized into three groups of 2 animals each. The control group (-●-) received no treatment. The DFMO group (-▪-) received intratumoral injections of DFMO (2 mg/kg) on days 1, 7, 9 (5 PM), and 2, 8, 10 (9 AM, 5 PM). […] Tumors were measured and volumes calculated as in part (A). A paired t-test was used to evaluate the significance of the difference between the curves.
smiles,measurement,setting,value
"NCCC[C@](N)(C(=O)O)C(F)F [DFMO, α-difluoromethylornithine]",effect as single agent on viability,[1],ineffective
same,effect as single agent on viability,MCF7 breast cancer cells,ineffective
same,difference between control and treated tumor curves,DLD-1 colon cancer,not significant
